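48-hour exposure; five concentrations; linearly interpolated endpoints. The concentration for 50% growth inhibition is given as GI50.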 The source made the active and inactive calls. Rule as the data show it: active = GI50 up to about 1.1 µM and inactive = higher. Some results are limits rather than exact numbers.

Assay in all cases: NCI-60 cell line screen, 48 h
Assay [1] has as its system A498.
The subject of assay [2] is A549.
Assay [3] relates to CCRF-CEM.
Assay [4] has as its system COLO 205.
Assay [5] deals with DU-145.
Assay [6] concerns HCC 2998.
Assay [7] deals with HCT-15.
Assay [8] relates to HL-60.
In assay [9] the test system is HOP-62.
Assay [10] relates to IGROV-1.
In assay [11] the test system is MCF7.
Assay [12] concerns Malme-3M.
Assay [13] deals with NCI/ADR-RES.
For assay [14], the system named is SK-MEL-28.
Assay [15] deals with SK-MEL-2.
For assay [16], the system named is SN12C.
In assay [17] the test system is SR.
Assay [18] deals with SW-620.
Assay [19] relates to UACC-62.
Assay [20] concerns UO-31.

With `C=CCn1cnc2c(O)nc(Nc3ccccc3)nc21`, the GI50 in assay [1], in assay [2], in [3], in assay [4], in [5] and in assay [6] was > 100 µM (inactive) in each case. The GI50 in assay [7] was above 100 µM; in assay [8] it was > 100 µM (inactive); in assay [9], > 100 µM (inactive); in [10], > 100 µM (inactive); in assay [11], > 100 µM (inactive); in [12] it was > 100 µM (inactive). For the same compound, the GI50 in assay [13], in assay [14], in assay [15], in assay [16], in assay [17] and in assay [18] was > 100 µM (inactive) in each case. In addition, the GI50 was > 100 µM (inactive) in assay [19] and 50.5 µM (inactive) in [20].
With `Cc1cccc2cc3ccc4ccccc4c3cc12`, the GI50 is 44.2 µM (inactive) in assay [1]; 37.1 µM (inactive) in assay [2]; 20.1 µM (inactive) in [3]; 19.4 µM (inactive) in assay [4]; 66.5 µM (inactive) in assay [5]; 19.9 µM (inactive) in [6]. The GI50 in assay [7] was 47 µM; in assay [8] it was 24.9 µM (inactive); in [9], 68.4 µM (inactive); in [10] it was 55 µM (inactive); in assay [11], 8.28 µM (inactive); in [12], 56.5 µM (inactive). Moreover, the GI50 in assay [13] was > 100 µM (inactive); in assay [14], > 100 µM (inactive); in [15], 26.5 µM (inactive); in assay [16] it was 51.6 µM (inactive); in assay [17] it was 22.2 µM (inactive); in assay [18] it was 44 µM (inactive). The GI50 in assay [19] is 80.9 µM (inactive); in assay [20], 77.8 µM (inactive).
For `COc1cccc2c1C(=O)OC2c1cccc2ccccc12` (stereo not given), the GI50 is > 52.5 µM (inactive) in [1]; > 100 µM (inactive) in [2]; > 100 µM (inactive) in [3]; > 100 µM (inactive) in assay [4]; > 100 µM (inactive) in assay [5]; > 100 µM (inactive) in assay [6]. Further, the GI50 was above 100 µM in assay [7]; > 46.6 µM (inactive) in assay [8]; 36 µM (inactive) in assay [9]; > 100 µM (inactive) in assay [10]; 31.6 µM (inactive) in assay [11]; > 100 µM (inactive) in [12]. The GI50 in [13] was 53.3 µM (inactive); in assay [14], > 100 µM (inactive); in [15], > 100 µM (inactive); in assay [16], > 100 µM (inactive); in assay [17] it was > 100 µM (inactive); in [18], > 100 µM (inactive). Also, the GI50 in assay [19] and in assay [20] was > 100 µM (inactive) each time.

These data come from ChEMBL document CHEMBL1201862, “PubChem BioAssay data set” (2004).
